Laboratory results: patent US11845760B2, “PRMT5 inhibitors” (AMGEN INC., priority 2020, dated 2023)
Read-outs that look alike come from different tables or passages of the source.

How the values were obtained:
[1] = system: HCT116 MTAP null cells; experiment: HCT116 MTAP null cell line proliferation (CellTiter-Glo cell viability, 6 days); type: cell-based; conditions: HCT116 MTAP null cells, 6 days of treatment, CellTiter-Glo cell viability, read-out: HCT-116 MTAP null IC50
Protocol: (§1) To assess selective anti-proliferative activity of compounds of the invention in cells that have loss expression of MTAP, an HCT-116 isogenic cell line pair was utilized where one cell line was engineered to genetically knockout both MTAP alleles. Cell viability was then assessed in both the parent HCT-116 cell line and the MTAP null cell line after 6 days of treatment with compounds of the present invention. Selective anti-proliferative activity in the MTAP null cell line indicates MTA-cooperative inhibition of PRMT5 and ability to inhibit growth of cancer cells that have loss of MTAP.
(§2) HCT116 MTAP null and WT cells were seeded in 96-well tissue culture plates in RPMI 1640 media+10% fetal bovine serum. Plates were incubated overnight at 37° C. and 5% CO2. Cells were then treated with an 8- or 9-point serial dilution of compound, using a top concentration of 1, or 10 μM, 1:3 serial dilution steps and, a DMSO-only control. Cells were incubated in the presence of drug for 6 days. Effects on cell viability were measured with the CellTiter-Glo® Luminescent Cell Viability Assay (Promega) per manufacturer's recommendation. Assay plates were read on an EnVision™ Multilabel Reader using the Ultra-Sensitive luminescence module. IC50 values were calculated with GraphPad Prism v 5.01 using symmetrical sigmoidal dose-response least squares fit with Hill slope fixed to −1 and top constrain to 100% or GeneData Screener using a 4-parameter logistic model to fit dose response curves.
(§3) Alternatively, compounds could be assayed with a 384 well plate format:
(§4) Compounds were pre-spotted into 384 well plates with a 22-point serial dilution of compound, using a top concentration of 10 or 50 μM, 1:2 serial dilution steps and, a DMSO-only control. HCT116 MTAP null and WT cells were then seeded as above and after 6 days effects on cell viability were measured with the CellTiter-Glo® Luminescent Cell Viability Assay (Promega). Assay plates were read as above and IC50 values were calculated with GeneData Screener using a 4-parameter logistic model to fit dose response curves. The reported IC50 represents the value where the curve transits 50% of control.

[2] = system: HCT116 WT cells; experiment: HCT116 WT cell line proliferation (CellTiter-Glo cell viability, 6 days); type: cell-based; conditions: HCT116 WT (parent) cells, 6 days of treatment, CellTiter-Glo cell viability, read-out: HCT-116 WT IC50
Protocol: as §1, §2, §3, §4

Compound	IC50 ([1]; HCT116-MTAP null, 144 h) [µM]	IC50 ([2]; Homo sapiens, HCT-116, 144 h) [µM]	IC50 [1] [µM]	IC50 [2] [µM]
C[C@H]1OCc2c1c(N)nc1ccc(C(=O)N3C[C@@H](c4ccccc4)[C@@H]4COCC[C@@H]43)cc21 [Example 399, ((3R)-4-amino-3-methyl-1,3-dihydrofuro[3,4-c]quinolin-8-yl)((3R,3aS,7aS)-3-phenylhexahydropyrano[4,3-b]pyrrol-1(4H)-yl)methanone]	0.197	13.1		
Cn1ncc2c3cc(C(=O)N4CCOCC4c4ccc(OC(F)(F)F)cc4)ccc3nc(N)c21 (racemic) [Example 498, (4-amino-3-methyl-3H-pyrazolo[3,4-c]quinolin-8-yl)((3R)-3-(4-(trifluoromethoxy)phenyl)-4-morpholinyl)methanone and (4-amino-3-methyl-3H-pyrazolo[3,4-c]quinolin-8-yl)((3S)-3-(4-(trifluoromethoxy)phenyl)-4-morpholinyl)methanone]	0.711	21.5		
C[C@H]1OCc2c1c(N)nc1cnc(C(=O)N3CCOC[C@H]3c3ccc(F)c(OC(F)(F)F)c3)cc21 (racemic) [Example 358, ((3R)-4-amino-3-methyl-1,3-dihydrofuro[3,4-c][1,7]naphthyridin-8-yl)((3R)-3-(4-fluoro-3-(trifluoromethoxy)phenyl)-4-morpholinyl)methanone and ((3R)-4-amino-3-methyl-1,3-dihydrofuro[3,4-c][1,7]naphthyridin-8-yl)((3S)-3-(4-fluoro-3-(trifluoromethoxy)phenyl)-4-morpholinyl)methanone]	0.313	14		
C[C@@H]1COC[C@H](c2ccc(C(F)(F)F)cn2)N1C(=O)c1cc2c3c(c(N)nc2cn1)CCC3 [Example 515, (6-amino-8,9-dihydro-7H-cyclopenta[c][1,7]naphthyridin-2-yl)((3R,5S)-3-methyl-5-(5-(trifluoromethyl)-2-pyridinyl)-4-morpholinyl)methanone]	0.047	0.541		
Nc1nc2cnc(C(=O)N3CCOC[C@H]3c3ccc(C(F)(F)F)cc3)cc2c2c1COC2 (single isomer, unassigned) [Example 482]	> 1	> 10		
C[C@H]1COC[C@@H](c2ccc(OC(F)F)nc2)N1C(=O)c1cc2c3c(c(N)nc2cn1)COC3 (racemic) [Example 318, (4-amino-1,3-dihydrofuro[3,4-c][1,7]naphthyridin-8-yl)((3R,5S)-3-(6-(difluoromethoxy)-3-pyridinyl)-5-methyl-4-morpholinyl)methanone and (4-amino-1,3-dihydrofuro[3,4-c][1,7]naphthyridin-8-yl)((3S,5R)-3-(6-(difluoromethoxy)-3-pyridinyl)-5-methyl-4-morpholinyl)methanone]	0.082	2.78		
C[C@H]1OCc2c1c(N)nc1ccc(C(=O)N3C[C@@H](O)[C@H](c4ccc(Cl)cc4)C3)cc21 (single isomer, unassigned) [Example 466]	0.189	16.6		
C[C@H]1COC[C@@H](c2ccc(OC(F)(F)F)cn2)N1C(=O)c1cc2c3c(c(N)nc2cc1Cl)COC3 (racemic) [Example 375, (4-amino-7-chloro-1,3-dihydrofuro[3,4-c]quinolin-8-yl)((3R,5S)-3-methyl-5-(5-(trifluoromethoxy)-2-pyridinyl)-4-morpholinyl)methanone and (4-amino-7-chloro-1,3-dihydrofuro[3,4-c]quinolin-8-yl)((3S,5R)-3-methyl-5-(5-(trifluoromethoxy)-2-pyridinyl)-4-morpholinyl)methanone]	0.003	0.058		
Nc1nc2ccc(C(=O)N3CCOC[C@@H]3c3ccc(OC(F)(F)F)nc3)cc2c2c1COC2 (single isomer, unassigned) [Example 592]	0.145	8.9		
Nc1nc2cnc(C(=S)N3CCOC[C@@H]3c3ccc(C(F)(F)F)cc3)cc2c2c1COC2 [Example 626, (4-amino-1,3-dihydrofuro[3,4-c][1,7]naphthyridin-8-yl)((3S)-3-(4-(trifluoromethyl)phenyl)-4-morpholinyl)methanethione]	0.394	12.9		
CCOc1ccc([C@H]2COC[C@@H](C)N2C(=O)c2ccc3nc(N)c4c(c3c2)CO[C@@H]4C)nn1 [Example 537, ((3R)-4-amino-3-methyl-1,3-dihydrofuro[3,4-c]quinolin-8-yl)((3S,5R)-3-(6-ethoxy-3-pyridazinyl)-5-methyl-4-morpholinyl)methanone]	0.055	2.5		
Cn1ncc2c(N)nc3cnc(C(=O)N4CCOC[C@@H]4c4ccc(C(F)(F)C(F)(F)F)cc4)cc3c21 [Example 410, (4-amino-1-methyl-1H-pyrazolo[4,3-c][1,7]naphthyridin-8-yl)((3S)-3-(4-(pentafluoroethyl)phenyl)-4-morpholinyl)methanone]	0.015	0.444		
C[C@@H]1COC[C@H](c2ccc(C(F)(F)F)cc2F)N1C(=O)c1ccc2nc(N)c3c(c2c1)COC3 (racemic) [Example 333, (4-amino-1,3-dihydrofuro[3,4-c]quinolin-8-yl)((3R,5S)-3-(2-fluoro-4-(trifluoromethyl)phenyl)-5-methyl-4-morpholinyl)methanone and (4-amino-1,3-dihydrofuro[3,4-c]quinolin-8-yl)((3S,5R)-3-(2-fluoro-4-(trifluoromethyl)phenyl)-5-methyl-4-morpholinyl)methanone]			0.058	1.45
Cn1ncc2c(N)nc3cc(F)c(C(=O)N4C[C@H]5C[C@@]5(c5ccc(C(F)(F)F)cc5)C4)cc3c21 (single isomer, unassigned) [Example 621]	0.175	4.41		
Nc1nc2cnc(C(=O)N3CCNC[C@@H]3c3ccc(C(F)(F)F)cc3)cc2c2c1COC2 (single isomer, unassigned) [Example 596, (4-amino-1,3-dihydrofuro[3,4-c][1,7]naphthyridin-8-yl)((2S)-2-(4-(trifluoromethyl)phenyl)-1-piperazinyl)methanone or (4-amino-1,3-dihydrofuro[3,4-c][1,7]naphthyridin-8-yl)((2R)-2-(4-(trifluoromethyl)phenyl)-1-piperazinyl)methanone]	0.58	> 10		
Cc1ccc([C@H]2COCCN2C(=O)c2cc3c4c(c(N)nc3cn2)COC4)cn1 (single isomer, unassigned) [Example 607]	> 1	> 10		
C[C@H]1COC[C@@H](c2ccc(C(F)(F)F)nc2)N1C(=O)c1cc2c3c(c(N)nc2cc1F)COC3 (racemic) [Example 309, (4-amino-7-fluoro-1,3-dihydrofuro[3,4-c]quinolin-8-yl)((3R,5S)-3-methyl-5-(6-(trifluoromethyl)-3-pyridinyl)-4-morpholinyl)methanone and (4-amino-7-fluoro-1,3-dihydrofuro[3,4-c]quinolin-8-yl)((3S,5R)-3-methyl-5-(6-(trifluoromethyl)-3-pyridinyl)-4-morpholinyl)methanone]	0.04	0.688		
CC1(C)CN(C(=O)c2cc3c4c(c(N)nc3cc2F)COC4)C[C@@H]1c1ccc(C(F)(F)F)cc1 (single isomer, unassigned) [Example 473]	0.017	0.556		
(4-amino-1-methyl-1H- pyrazolo[4,3- c][1,7]naphthyridin-8- yl)((3R)-3-(4- (trifluoromethyl)benzyl)-1- pyrrolidinyl)methanone and (4-amino-1-methyl-1H- pyrazolo[4,3- c][1,7]naphthyridin-8- yl)((3S)-3-(4- (trifluoromethyl)benzyl)-1- pyrrolidinyl)methanone [Example 432]			0.616	22.7
Nc1nc2cnc(C(=O)N3CCOC[C@@H]3c3ncc(Br)cc3F)cc2c2c1COC2 (single isomer, unassigned) [Example 459]	0.072	6.14		
N#Cc1ccc(C2COCCN2C(=O)c2cc3c4c(c(N)nc3cn2)COC4)cc1 (racemic) [Example 388, 4-((3R)-4-((4-amino-1,3-dihydrofuro[3,4-c][1,7]naphthyridin-8-yl)carbonyl)-3-morpholinyl)benzonitrile and 4-((3S)-4-((4-amino-1,3-dihydrofuro[3,4-c][1,7]naphthyridin-8-yl)carbonyl)-3-morpholinyl)benzonitrile]	0.838	32.8		
Nc1nc2cnc(C(=O)N3CCOC[C@@H]3c3ccc(C(F)(F)C(F)(F)F)cc3)cc2c2c1COC2 [Example 511]	0.043	1.13		
